The target of this test is T1, FAAH (Rattus norvegicus, UniProt P97612).
T1 construct: Preparation of Rat Brain Membranes Preparations (FAAH Enzyme Solution); from tissue; host or cells: rat cerebrum (brain membrane preparation)
T1 sequence (P97612 1-579): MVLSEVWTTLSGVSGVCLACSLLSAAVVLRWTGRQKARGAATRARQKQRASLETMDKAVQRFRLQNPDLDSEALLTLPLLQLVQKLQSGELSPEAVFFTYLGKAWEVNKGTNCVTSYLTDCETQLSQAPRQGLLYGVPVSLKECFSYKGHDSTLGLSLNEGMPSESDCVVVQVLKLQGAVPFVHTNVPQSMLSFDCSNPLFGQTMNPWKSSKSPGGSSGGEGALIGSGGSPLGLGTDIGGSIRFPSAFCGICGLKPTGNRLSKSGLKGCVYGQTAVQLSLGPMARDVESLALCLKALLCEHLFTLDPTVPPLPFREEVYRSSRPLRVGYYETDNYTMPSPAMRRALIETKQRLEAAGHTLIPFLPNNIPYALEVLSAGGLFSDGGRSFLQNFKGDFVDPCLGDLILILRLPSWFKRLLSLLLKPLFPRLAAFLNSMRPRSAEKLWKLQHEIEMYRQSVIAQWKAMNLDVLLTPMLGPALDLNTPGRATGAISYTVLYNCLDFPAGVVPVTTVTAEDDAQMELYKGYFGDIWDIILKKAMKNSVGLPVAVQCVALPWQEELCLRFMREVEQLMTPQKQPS
Put plainly: Determination of FAAH inhibitory activity in rat (rat brain membrane preparations, [3H]-anandamide hydrolysis). It counts as biochemical. Conditions: for inhibition at 0.1 µM: read-out: FAAH Inhibition, Inhibition Rate at 100 nM; for IC50: test substance 0.1 nM to 1 μM, read-out: FAAH Inhibition IC50. On the procedure: Determination of FAAH Inhibitory Activity in Rat
The preparation of rat brain membranes preparations and the determination of FAAH inhibitory activity were carried out according to the Jonsson et al. method [Br. J. Pharmacol., 133, 1263 (2001)].
(1) Preparation of Rat Brain Membranes Preparations (FAAH Enzyme Solution)
The cerebrum was extracted from rats and was freeze-stored at −80° C. To the frozen cerebrum was added 4° C. enzyme homogenization buffer (20 mM HEPES-buffer pH 7.0, 1 mM MgCl2) and the mixture was homogenized using a homogenizer in ice and the homogenates were centrifuged (36,000×g for 20 minutes). After repeating operations of homogenization and centrifugation, the tissue pellets were re-suspended with 4° C. enzyme homogenization buffer. The re-suspensions were incubated at 37° C. for 15 minutes and were centrifuged (36,000×g for 20 minutes), and the resulting tissue membranes were then re-suspended with enzyme solution preparation buffer (50 mM Tris-HCl buffer pH 7.4, 1 mM EDTA, 3 mM MgCl2). The protein concentration in the resulting membrane preparations were determined according to a colorimetry method (BCA Protein Assay: Pierce Inc.) and the preparations were freeze-stored at −80° C. until used for assay.
(2) Screening of Substances for Inhibiting FAAH Activity
To the above membrane preparations (final concentration 100 μg/mL) were added a solution of test substances in DMSO (final concentration in DMSO 1%) and an assay buffer (for final preparation; 22 mM Tris-HCl (pH 7.6), 1.4 mM EDTA, 1.5% BSA, 0.6 mM MgCl2) and the resulting mixtures were preincubated at 37° C. for 10 minutes. Thereto was added a substrate solution (for final preparation; 2 nM [^3H]-Anandamide (American Radiolabeled Chemicals Inc.)+2 μM Anandamide (Sigma-Aldrich Co.)) (final assay volume of 200 μL) and the resulting mixtures were incubated at 37° C. for 10 minutes. Here in control experiment, DMSO was added instead of the solution of test substance in DMSO. Also in blank experiment, DMSO was added instead of the solution of test substance in DMSO and an enzyme solution preparation buffer was also added instead of the membrane preparations. After the incubation, thereto was added a 400 μL ice-cooled solution of chloroform and methanol (1:1 ratio by volume) and the resulting mixtures were stirred. An ethanolamine (ethanolamine-1-[^3H]) as a decomposed product was separated into an upper layer (water/methanol layer) by centrifugation (1,000×g for 10 minutes). The upper layer 200 μL was transferred into 96 well Deepwell Luma Plate-96 (PerkinElmer Inc.) and the radioactivity was measured by microplate scintillation counter (TopCount NXT™: […].). The substances showing a lower measured value compared to those of control were selected as the compound having a FAAH inhibitory activity.
(3) Determination of IC50 Value
The test substances were prepared such that the final concentration of the compounds is within the range of 0.1 nM to 1 μM and were then examined on the effect on FAAH activity according to the above-mentioned protocol.

The mark [1] stands for this setting: rat brain membrane preparations, 100 nM test substance.
The mark [2] stands for this setting: rat brain membrane preparations.

Read-outs that look alike come from different tables or passages of the source.

Consider `Cn1c(=O)n(C(=O)N2CCCC2)c2cnc(/C=C/c3ccccc3)nc21` [Example 1, 9-methyl-2-[(E)-2-phenylethenyl]-7-(pyrrolidin-1-ylcarbonyl)-7,9-dihydro-8H-purine-8-one], for which the inhibition at 0.1 µM under setting [1] is 100%. Under setting [2], the IC50 was determined as 6 nM.

Consider `CCN(C)C(=O)n1c(=O)n(C)c2nc(-c3ccccc3)ncc21` [Example 2, N-ethyl-N,9-dimethyl-8-oxo-2-phenyl-8,9-dihydro-7H-purine-7-carboxamide], for which, under setting [1], the inhibition at 0.1 µM is 99%. The IC50 under setting [2] came out at 10 nM.

Regarding `COc1ccc(/C=C/c2ncc3c(n2)n(C)c(=O)n3C(=O)N2CCCC2)cc1` [Example 4, 2-[(E)-2-(4-Methoxyphenyl)ethenyl]-9-methyl-7-(pyrrolidin-1-ylcarbonyl)-7,9-dihydro-8H-purine-8-one], the inhibition at 0.1 µM under setting [1] worked out at 99%. Further, under setting [2], the IC50 was determined as 10 nM.

As to `Cn1c(=O)n(C(=O)N2CCCC2)c2cnc(/C=C/c3ccc(F)cc3)nc21` [Example 5, 2-[(E)-2-(4-Fluorophenyl)ethenyl]-9-methyl-7-(pyrrolidin-1-ylcarbonyl)-7,9-dihydro-8H-purine-8-one], the inhibition at 0.1 µM under setting [1] was 98%. For the same compound, under setting [2], the IC50 was found to be 15 nM.

`Cn1c(=O)n(C(=O)N2CCCC2)c2cnc(/C=C/c3ccc(Cl)cc3)nc21` [Example 8, 2-[(E)-2-(4-Chlorophenyl)ethenyl]-9-methyl-7-(pyrrolidin-1-ylcarbonyl)-7,9-dihydro-8H-purine-8-one]: under setting [1], the inhibition at 0.1 µM worked out at 87%. Moreover, the IC50 under setting [2] came to 57 nM.

As for `Cc1ccc(/C=C/c2ncc3c(n2)n(C)c(=O)n3C(=O)N2CCCC2)cc1` [Example 9, 9-Methyl-2-[(E)-2-(4-methylphenyl)ethenyl]-7-(pyrrolidin-1-ylcarbonyl)-7,9-dihydro-8H-purine-8-one], under setting [1], the inhibition at 0.1 µM amounted to 92%. Besides, the half-inhibitory concentration (IC50) under setting [2] is 47 nM.

For `Cn1c(=O)n(C(=O)N2CCCC2)c2cnc(CCc3ccccc3)nc21` [Example 11, 9-Methyl-2-(2-phenylethyl)-7-(pyrrolidin-1-ylcarbonyl)-7,9-dihydro-8H-purine-8-one], the inhibition at 0.1 µM under setting [1] amounted to 79%. Besides, under setting [2], the IC50 is 66 nM.

Turning to `COc1ccc(CCc2ncc3c(n2)n(C)c(=O)n3C(=O)N2CCCC2)cc1` [Example 12, 2-[2-(4-Methoxyphenyl)ethyl]-9-methyl-7-(pyrrolidin-1-ylcarbonyl)-7,9-dihydro-8H-purine-8-one], the inhibition at 0.1 µM under setting [1] worked out at 93%. The IC50 under setting [2] turned out to be 46 nM.

Take `Cn1c(=O)n(C(=O)N2CCCC2)c2cnc(-c3ccccc3)nc21` [Example 16, 9-Methyl-2-phenyl-7-(pyrrolidin-1-ylcarbonyl)-7,9-dihydro-8H-purine-8-one]: the inhibition at 0.1 µM under setting [1] came to 100%. In addition, the IC50 under setting [2] stood at 7 nM.

As to `Cn1c(=O)n(C(=O)N2CCCC2)c2cnc(-c3cccc(Cl)c3)nc21` [Example 17], the inhibition at 0.1 µM under setting [1] is 101%. In addition, the half-maximal inhibitory concentration (IC50) under setting [2] is 8 nM.

In the case of `Cn1c(=O)n(C(=O)N2CCCC2)c2cnc(-c3ccc(Cl)cc3)nc21` [Example 18], the inhibition at 0.1 µM under setting [1] came to 99%. For the same compound, under setting [2], the IC50 stood at 7 nM.

With `Cn1c(=O)n(C(=O)N2CCCC2)c2cnc(Cc3cccc(Cl)c3)nc21` [Example 19, 2-(3-Chlorobenzyl)-9-methyl-7-(pyrrolidin-1-ylcarbonyl)-7,9-dihydro-8H-purine-8-one], the inhibition at 0.1 µM under setting [1] stood at 99%. For the same compound, the half-inhibitory concentration (IC50) under setting [2] was 9 nM.

Take `Cn1c(=O)n(C(=O)N2CCCC2)c2cnc(Cc3ccc(Cl)cc3)nc21` [Example 20, 2-(4-Chlorobenzyl)-9-methyl-7-(pyrrolidin-1-ylcarbonyl)-7,9-dihydro-8H-purine-8-one]: the inhibition at 0.1 µM under setting [1] was 95%. The IC50 under setting [2] came to 40 nM.

For `Cn1c(=O)n(C(=O)N2CCCC2)c2cnc(CCCc3ccccc3)nc21` [Example 21], under setting [1], the inhibition at 0.1 µM stood at 57%. In addition, the IC50 under setting [2] stood at 84 nM.

With `CN(C)C(=O)n1c(=O)n(C)c2nc(-c3ccccc3)ncc21` [Example 22], the inhibition at 0.1 µM under setting [1] worked out at 102%. Moreover, the concentration for half-maximal inhibition (IC50) under setting [2] came to 12 nM.

Regarding `Cn1c(=O)n(C(=O)N2CCC2)c2cnc(-c3ccccc3)nc21` [Example 23, 7-(Azetidin-1-ylcarbonyl)-9-methyl-2-phenyl-7,9-dihydro-8H-purine-8-one], under setting [1], the inhibition at 0.1 µM was 102%. For the same compound, under setting [2], the IC50 amounted to 5 nM.

Turning to `Cn1c(=O)n(C(=O)N2CCCCC2)c2cnc(-c3ccccc3)nc21` [Example 24, 9-Methyl-2-phenyl-7-(piperidin-1-ylcarbonyl)-7,9-dihydro-8H-purine-8-one], the inhibition at 0.1 µM under setting [1] is 97%. Besides, the IC50 under setting [2] stood at 29 nM.

Consider `CN1CCN(C(=O)n2c(=O)n(C)c3nc(-c4ccccc4)ncc32)CC1` [Example 26], for which, under setting [1], the inhibition at 0.1 µM is 38%. Moreover, under setting [2], the half-inhibitory concentration (IC50) was above 100 nM.

As to `CN(C(=O)n1c(=O)n(C)c2nc(-c3ccccc3)ncc21)c1ccccc1` [Example 27], under setting [1], the inhibition at 0.1 µM was 76%. The IC50 under setting [2] amounted to 63 nM.

`COC[C@H]1CCCN1C(=O)n1c(=O)n(C)c2nc(-c3ccccc3)ncc21` [Example 29]: under setting [1], the inhibition at 0.1 µM came to 67%. For the same compound, under setting [2], the half-inhibitory concentration (IC50) amounted to 75 nM.

Regarding `Cn1c(=O)n(C(=O)N2CCC(c3ccccc3)CC2)c2cnc(-c3ccccc3)nc21` [Example 33, 9-Methyl-2-phenyl-7-[(4-phenylpiperidin-1-yl)carbonyl]-7,9-dihydro-8H-purine-8-one], the inhibition at 0.1 µM under setting [1] amounted to 91%. Also, the half-maximal inhibitory concentration (IC50) under setting [2] stood at 47 nM.

Consider `CN(Cc1ccccc1)C(=O)n1c(=O)n(C)c2nc(-c3ccccc3)ncc21` [Example 34, N-Benzyl-N,9-dimethyl-8-oxo-2-phenyl-8,9-dihydro-7H-purine-7-carboxamide], for which the inhibition at 0.1 µM under setting [1] amounted to 101%. The half-maximal inhibitory concentration (IC50) under setting [2] is 23 nM.

Turning to `CN(CCCc1ccccc1)C(=O)n1c(=O)n(C)c2nc(-c3ccccc3)ncc21` [Example 35, N,9-Dimethyl-8-oxo-2-phenyl-N-(3-phenylpropyl)-8,9-dihydro-7H-purine-7-carboxamide], the inhibition at 0.1 µM turned out to be 100%. Also, the concentration for half-maximal inhibition (IC50) under setting [2] came to 8 nM.

On to `CN(CCCCc1ccccc1)C(=O)n1c(=O)n(C)c2nc(-c3ccccc3)ncc21` [Example 36, N,9-Dimethyl-8-oxo-2-phenyl-N-(4-phenylbutyl)-8,9-dihydro-7H-purine-7-carboxamide], for which the inhibition at 0.1 µM under setting [1] was 98%. For the same compound, the IC50 under setting [2] was 7 nM.

Turning to `CCOC(=O)CN(C)C(=O)n1c(=O)n(C)c2nc(-c3ccccc3)ncc21` [Example 37, Ethyl N-methyl-N-[(9-methyl-8-oxo-2-phenyl-8,9-dihydro-7H-purin-7-yl)carbonyl]glycinate], under setting [1], the inhibition at 0.1 µM came out at 91%. Under setting [2], the half-inhibitory concentration (IC50) came out at 46 nM.

For `COC(=O)CN(C)C(=O)n1c(=O)n(C)c2nc(-c3ccccc3)ncc21` [Example 38], the inhibition at 0.1 µM under setting [1] amounted to 73%. Under setting [2], the IC50 was determined as 76 nM.

Turning to `COCCN(C)C(=O)n1c(=O)n(C)c2nc(-c3ccccc3)ncc21` [Example 39, N-(2-Methoxyethyl)-N,9-dimethyl-8-oxo-2-phenyl-8,9-dihydro-7H-purine-7-carboxamide], the inhibition at 0.1 µM under setting [1] is 98%. Moreover, the IC50 under setting [2] is 43 nM.

Source of the values: patent publication US8735406B2, “8-oxodihydropurine derivative” (Dainippon Sumitomo Pharma Co., Ltd., priority 2009, dated 2014).
